Measurements from PubChem BioAssay (NCI).
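Five concentrations, 48 hours, 96-well plates. At the TGI there is no net growth.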

Experiments:
Test in all cases: NCI-60 cell line screen, 48 h
[1] = system: MOLT-4 leukemia
[2] = system: T-47D breast
[3] = system: SN12C renal
[4] = system: SK-MEL-5 melanoma
[5] = system: SW-620 colon
[6] = system: IGROV1 ovarian
[7] = system: U251 CNS
[8] = system: SK-MEL-28 melanoma
[9] = system: SK-OV-3 ovarian
[10] = system: MDA-MB-435

SMILES	TGI [1] [µM]	TGI [2] [µM]	TGI [3] [µM]	TGI [4] [µM]	TGI [5] [µM]	TGI [6] [µM]	TGI [7] [µM]	TGI [8] [µM]	TGI [9] [µM]	TGI [10] [µM]
CN(C)c1ccc(Cc2cc3c(O)ccc(O)c3cc(Cc3ccc(N(C)C)cc3)c2=O)cc1	8.81	26.8	> 73.2	39.3	41.9	40.2	41.4	37.4	> 100	36.9
O=C(OCC1OC(n2nc(Cn3nnc(-c4cccnc4)n3)n(-c3cccc4ccccc34)c2=S)C(OC(=O)c2ccccc2)C1OC(=O)c1ccccc1)c1ccccc1 (stereo not given)	> 100	> 100	> 100	> 100	> 100	> 100	> 100	> 100	> 100	> 100
N#Cc1c(-c2ccccc2)c2c([nH]c1=O)-c1cc([N+](=O)[O-])ccc1CCC2	> 100	52.2	> 100	76	> 100	> 100	> 100	> 100	> 100	> 100
COc1ccc(C2c3cc4c(cc3OC(NCCO)C2C)OCO4)cc1 (stereo not given)	50	> 100	71.7	44.7	> 100	> 100	54.9	69.1	87.6	59.7
c1ccc([P+](CCCCCCCC[P+](c2ccccc2)(c2ccccc2)c2ccccc2)(c2ccccc2)c2ccccc2)cc1	> 86	> 100	> 100	40.7	> 100	> 23.9	> 100	> 100	> 100	> 68.4
C[n+]1c(/C=C/c2ccc(O)c3ncccc23)[se]c2ccccc21	> 22.7	> 41.8	16.1	26.5	> 100	> 37.8	16.3	52.9	23.4	28.4
O=S1(=O)c2cnccc2NC(=NCc2ccccc2)N1c1ccccc1	> 100	> 100	> 100	> 100	> 100	> 100	> 100	> 100	> 100	> 100
O=C(/C=C/c1ccc2c(c1)OCO2)Cc1nc2ccccc2[nH]c1=O	> 100	34.2	60.2	> 100	> 100	> 100	34.2	61.5	33.5	46.1
CC(=O)n1nc(-c2ccccc2)n(/N=C/c2ccc([N+](=O)[O-])o2)c1=O	18.6	44.5	7.39	14.8	22.9	37.4	33.4	22.3	40.2	12.1
COP(=O)(OC)C(Nc1ccc(Cc2ccc(NC(c3ccco3)P(=O)(OC)OC)cc2)cc1)c1ccco1 (stereo not given)	> 100	> 100	> 100	> 100	> 100	> 100	21.4	> 100	73.6	> 100
CC1=NNC(=O)C1C1CC(c2c[nH]c3ccccc23)=NN=C1Cl (stereo not given)	75.8	> 100	> 100	> 100	> 100	> 100	> 100	> 100	> 100	> 100
CCN1C(=O)C(=C/C=C/c2ccc(N(CC)CC)cc2)C(=O)N(CC)C1=S	> 100	> 100	> 100	> 100	> 100	> 100	> 100	> 100	> 100	> 100
CN(C)CCCNC(=O)c1c(O)c2ccccc2n(C)c1=O	> 100	> 100	> 100	> 100	> 100	> 100	> 100	> 100	> 100	> 100
CC(C)N1CN(c2ccccc2)C2(CCN(CCCC(=O)c3ccc(F)cc3)CC2)C1=O	47.3	40.8	> 55.4	6.53	24.2	17.5	> 100	36.7	> 100	27.6
C(=C\c1ccccc1)/COc1ccccc1C(N1CCOCC1)n1nc2ccccc2n1 (stereo not given)	13.2	43.8	24.1	13.8	36.5	41.6	17.6	32.7	81.1	1.9
Nc1ccc(-c2nn3c(COc4ccc(Cl)cc4)nnc3s2)cc1	> 100	> 100	> 100	> 100	> 100	> 100	> 100	> 100	> 100	> 100
Nc1nc(Nc2ccccc2)sc1C(=O)c1ccco1	35.7	41.4	39.5	23.2	67.4	60.7	> 100	67.1	93.6	31.5
